The target of assay [1] is T1, human leukocyte elastase (HLE) (Homo sapiens, UniProt P08246).
T1 sequence (P08246 30-247): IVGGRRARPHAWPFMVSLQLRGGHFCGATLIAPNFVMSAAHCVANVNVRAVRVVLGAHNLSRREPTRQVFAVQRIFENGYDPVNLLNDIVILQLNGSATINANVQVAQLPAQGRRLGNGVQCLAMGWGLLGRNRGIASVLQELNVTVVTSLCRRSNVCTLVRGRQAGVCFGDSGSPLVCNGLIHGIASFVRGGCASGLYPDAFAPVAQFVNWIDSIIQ
Kind of assay: Dry phase test strip assay of chromogenic substrates for HLE (reflectance at 557 nm, K/S). The conditions noted are these: for K/S: response at 120 seconds; for Change in K/S: 120 seconds; for Response to HLE / hydrolysis by HLE, in words: test strip, NDNSA. The format is biochemical. On the procedure: In accordance with the method of the present invention, a test device was prepared which was sensitive to the presence of leukocyte esterase. An aqueous solution including 0.8M borate-sodium hydroxide buffer (pH 8.8) and 1% by weight of polyvinylpyrrolidone (PVP K-60 available from ISP Corp., Wayne, N.J.) first was prepared. A 4 inch wide strip of WHATMAN 3MM filter paper, available commercially from Whatman, Ltd., Maidenhead, Kent, U.K., then was impregnated with the aqueous solution. The impregnated filter paper strip next was dried in an Air Foil paper dryer, available from Thermoelectron, Kaukauna, Wis., at 79° C. to 121° C. for about 5 to 6 minutes.
The dried, impregnated filter paper strip then was impregnated a second time by immersion into an acetone solution containing 1.1 mM of a lactate ester of structural formula […], 0.7 mM 4-diazo-3-hydroxy-7-nitro-1-naphthylsulfonate (i.e., the compound of structural formula (XX), also named 6-nitro-1,2-naphthoquinone diazide), 1.5% (v/v) 1-decanol and 3% (v/v) dimethylsulfoxide. After the second impregnation, the filter paper strip was dried at 60° C. for about 5 to 6 minutes to provide an off-white filter paper strip. The dried, twice-impregnated filter paper pad is secured to an opaque or transparent hydrophobic plastic handle with double-sided adhesive tape. The dried and twice-impregnated filter paper strip was next cut to an appropriate size for a test strip assay, such as a pad having dimensions of about 0.2 in (inch) (0.5 cm) by about 0.2 in (0.5 cm).
Individual test strips each incorporating one chromogenic lactate ester having a structural formula (X) through (XIV) and a diazonium salt coupling agent were quickly immersed into standardized solutions containing 0, 19 or 48 ng/mL HLE, then removed. Approximately two minutes after contacting a standardized HLE solution, the reflectance of the test pad of the test strip was measured at 557 nm (nanometers) on a CLINITEK® 10 clinical reflectance meter, available from Miles, Inc., Elkhart, Ind.
The reflectance, R, as taken from the reflectance scale of zero to one, was incorporated into the Kubelka-Munk function:
wherein K is the absorption coefficient, S is the scattering coefficient and R is reflectance. The reflectance values determined at 557 nm were used to calculate the K/S values. The K/S values are proportional to test strip color, therefore the greater the K/S value, the greater the degree and intensity of the color transition of the test strip and the greater the concentration of HLE in the test strip.
Dry phase test strips incorporating the lactate ester of structural formula (X), and prepared as discussed above, were compared to dry phase test strips incorporating the corresponding alanine derivative (I) for an ability to detect HLE in urine. A comparison also was made between the diazonium salt coupling agents DNSA (XX) and NDNSA (XXI). The test strips were otherwise identical. The results tabulated below were obtained after quickly immersing the individual reagent strips into standardized HLE solutions. Two minutes after immersion, the test strips were examined for a chromogenic response as described above.

The target of assay [2] is T1, human leukocyte elastase (HLE). Described as above. The class given is biochemical. The conditions noted are these: for K/S: response at 120 seconds; for Change in K/S: between 0 and 19 ng/mL HLE; for Change in K/S / Response between 200 and 500 ng/mL HLE, in words: 120 seconds; for ΔK/S (557 mm) at 120 seconds: NDNSA (XXI); for Response between 200 and 500 ng/mL HLE, in words: test strip, NDNSA.

Setting [3] is: HLE 0 ng/mL, diazonium salt NDNSA, 557 nm.
Where [4] appears, read: HLE 19 ng/mL, diazonium salt NDNSA, 557 nm.
The mark [5] stands for this setting: between 0 and 19 ng/mL HLE, diazonium salt NDNSA.
The mark [6] stands for this setting: Example 10, HLE 19 ng/mL, diazonium salt not given (as in Example 6).
[7] abbreviates: Example 10, diazonium salt not stated.
Where [8] appears, read: Example 10, HLE 0 ng/mL, diazonium salt not given (as in Example 6).
Setting [9] is: HLE 48 ng/mL, diazonium salt NDNSA, 557 nm.
Where [10] appears, read: between 0 and 48 ng/mL HLE, diazonium salt NDNSA.
Setting [11] is: change between 0 and 5 ng/mL HLE.
The mark [12] stands for this setting: change between 0 and 10 ng/mL HLE.
[13] abbreviates: change between 0 and 20 ng/mL HLE.
Where [14] appears, read: change between 0 and 100 ng/mL HLE.
Where [15] appears, read: change between 0 and 200 ng/mL HLE.
Where [16] appears, read: change between 0 and 500 ng/mL HLE.

As for `C[C@H](NC(=O)c1ccccc1)C(=O)Oc1c[nH]c(-c2ccccc2)c1` [Ph--CO--R--OPP, R = Alanine], the figures for the K/S in assay [1] (setting [3]) and in assay [1] (setting [4]) were 0.038 and 0.039, respectively. The “Change in K/S” value in assay [1] (setting [5]) came to 0.001.

`Cc1ccc(S(=O)(=O)N[C@@H](C)C(=O)Oc2c[nH]c(-c3ccccc3)c2)cc1` [Tosyl--Ala--OPP, 3-hydroxy-5-phenyl-pyrrole-N-tosyl-L-alanine ester]: the K/S in assay [2] (HLE 0 ng/mL, diazonium salt DNSA, 557 nm) was determined as 0.021; in assay [2] (HLE 19 ng/mL, diazonium salt DNSA, 557 nm) it was 0.146; in assay [1] (setting [3]) it was 0.044; in assay [1] (setting [4]), 0.308. Moreover, the “Change in K/S” value in assay [2] (diazonium salt DNSA) was found to be 0.125; in assay [1] (setting [5]), 0.264.

With `C[C@H](OS(=O)(=O)c1cccs1)C(=O)Oc1c[nH]c(-c2ccccc2)c1` [2-Thiophene-SO2-(L)-Lac-OPP], the values for the K/S in assay [2] (setting [6]) and in assay [1] (setting [8]) were 0.385 and 0.03, respectively. In assay [2] (setting [7]), the “Change in K/S” value was 0.332.

`Cc1ccc(S(=O)(=O)O[C@@H](C)C(=O)Oc2c[nH]c(-c3ccccc3)c2)cc1` [Tosyl-(L)--Lac--OPP, 3-(O-tosyl-(L)-lactoyl)-5-phenylpyrrole]: the K/S in assay [1] (setting [3]) was 0.046; in assay [1] (setting [4]), 0.348. Also, the “Change in K/S” value in assay [1] (setting [5]) came to 0.302. Further, the “Response to HLE / hydrolysis by HLE, in words” value in assay [1] was “readily hydrolyzed by the enzyme HLE”.

For `C[C@H](OC(=O)c1ccccc1)C(=O)Oc1c[nH]c(-c2ccccc2)c1` [Ph--CO--R--OPP, R = Lactate (XI), PhCO-(L)-Lac--OPP], the K/S in assay [1] (setting [3]) was 0.041; in assay [1] (setting [4]) it was 0.106. Moreover, the “Change in K/S” value in assay [1] (setting [5]) was 0.065.

Regarding `COC(=O)CCS(=O)(=O)N[C@@H](C)C(=O)Oc1c[nH]c(-c2ccccc2)c1`, the K/S in assay [1] (setting [3]) is 0.074; in assay [1] (setting [4]), 0.435; in assay [1] (setting [9]), 0.976. In addition, the entries for the “Change in K/S” value in assay [1] (setting [5]) and in assay [1] (setting [10]) were 0.361 and 0.902, respectively.

On to `CCCS(=O)(=O)N[C@@H](C)C(=O)Oc1c[nH]c(-c2ccccc2)c1` [n-Pr--SO2 --Ala--OPP], for which the “ΔK/S (557 mm) at 120 seconds” value in assay [2] (setting [11]) is 0.065; in assay [2] (setting [12]), 0.165; in assay [2] (setting [13]) it was 0.353; in assay [2] (setting [14]), 1.474; in assay [2] (setting [15]) it was 1.797; in assay [2] (setting [16]), 1.628. Also, the “Response between 200 and 500 ng/mL HLE, in words” value in assay [2] was “no difference in response”. Further, the K/S came out at 0.050 in assay [1] (setting [3]), 0.363 in assay [1] (setting [4]) and 0.881 in assay [1] (setting [9]). The “Change in K/S” value is reported as 0.313 in assay [1] (setting [5]) and 0.831 in assay [1] (setting [10]).

As to `CCCS(=O)(=O)O[C@@H](C)C(=O)Oc1c[nH]c(-c2ccccc2)c1` [n-Pr--SO2 --Lac--OPP, nPr--SO2 -(L)-Lac--OPP], the “ΔK/S (557 mm) at 120 seconds” value in assay [2] (setting [11]) was 0.108; in assay [2] (setting [12]) it was 0.257; in assay [2] (setting [13]), 0.533; in assay [2] (setting [14]), 1.462; in assay [2] (setting [15]), 1.693; in assay [2] (setting [16]), 1.915. In assay [2], the “Response between 200 and 500 ng/mL HLE, in words” value is listed as “continues to increase”. In addition, the figures for the K/S in assay [1] (setting [3]), in assay [1] (setting [4]) and in assay [1] (setting [9]) were 0.100, 0.498 and 1.049, respectively. The “Change in K/S” value in assay [1] (setting [5]) is listed as 0.398; in assay [1] (setting [10]), 0.949.

Consider `C[C@H](NS(=O)(=O)c1cccs1)C(=O)Oc1c[nH]c(-c2ccccc2)c1` [2-Thiophene-SO2 --R--OPP, R = Alanine], for which the K/S turned out to be 0.224 in assay [2] (setting [6]) and 0.050 in assay [1] (setting [8]). Also, the “Change in K/S” value in assay [2] (setting [7]) is reported as 0.174.

`COC(=O)CCS(=O)(=O)O[C@@H](C)C(=O)Oc1c[nH]c(-c2ccccc2)c1` [MeOSucc--SO2 -(L)-Lac--OPP]: the figures for the K/S in assay [1] (setting [3]), in assay [1] (setting [4]) and in assay [1] (setting [9]) were 0.177, 0.514 and 0.916, respectively. In addition, the “Change in K/S” value in assay [1] (setting [5]) was 0.337; in assay [1] (setting [10]), 0.739. In addition, the “Response to HLE / hydrolysis by HLE, in words” value in assay [1] is given as “sufficient to assay for HLE”.
